The values that follow come from patent US12570655B2, “Cysteine covalent modifiers of AKT1 and uses thereof” (Terremoto Biosciences, Inc., priority 2023, dated 2026).

Read-outs that look alike come from different tables or passages of the source.

Type in all cases: cell-based
The target in one assay is T1, AKT1 E17K (Homo sapiens, UniProt P31749, E17K).
T1 construct: expressed in transfected cells; host or cells: HEK293
Description: Live cell AKT1 E17K target engagement by NanoBRET competitive probe displacement. Conditions: HEK293 cells transfected with kinase-NanoLuciferase fusion, 2 h at 37° C. The essentials: (§1)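 HEK293 cells transiently expressing kinase–NanoLuciferase fusions (overnight transfection) were treated with serial compound dilutions plus fluorescent ATP-competitive tracer at ~EC50 concentration for 2 h at 37 °C. BRET ratio E600/E460 measured after substrate and extracellular luciferase inhibitor addition; IC50 from log(inhibitor)–response Hill fit.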
In general terms: Bioluminescence resonance energy transfer reports proximity on the nanometre scale.

A further assay concerns the target T2, AKT2 (Homo sapiens, UniProt P31751).
T2 construct: expressed in transfected cells; host or cells: HEK293
Description: Live cell AKT2 target engagement by NanoBRET competitive probe displacement. Conditions: HEK293 cells transfected with kinase-NanoLuciferase fusion, 2 h at 37° C. The essentials: as §1

A further assay deals with T3, AKT1 WT (Homo sapiens, UniProt P31749).
T3 construct: expressed in transfected cells; host or cells: HEK293
T3 sequence (P31749 whole entry): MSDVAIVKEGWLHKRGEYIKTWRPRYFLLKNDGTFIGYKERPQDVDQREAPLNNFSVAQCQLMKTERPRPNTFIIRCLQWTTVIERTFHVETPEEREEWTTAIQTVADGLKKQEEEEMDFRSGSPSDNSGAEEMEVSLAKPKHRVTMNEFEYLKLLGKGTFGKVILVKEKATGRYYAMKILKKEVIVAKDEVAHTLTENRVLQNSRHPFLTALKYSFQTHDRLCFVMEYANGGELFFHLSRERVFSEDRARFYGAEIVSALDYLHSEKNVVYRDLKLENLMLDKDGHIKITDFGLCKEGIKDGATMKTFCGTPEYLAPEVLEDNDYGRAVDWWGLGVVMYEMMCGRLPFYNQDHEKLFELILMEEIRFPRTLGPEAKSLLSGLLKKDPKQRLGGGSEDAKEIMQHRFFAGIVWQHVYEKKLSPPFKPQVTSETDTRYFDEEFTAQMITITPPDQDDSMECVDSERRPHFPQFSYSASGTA
Description: Live cell AKT1 WT target engagement by NanoBRET competitive probe displacement. To be noted: HEK293 cells transfected with kinase-NanoLuciferase fusion, 2 h at 37° C. The essentials: as §1

Assay [1] deals with LAPC4 prostate cancer cells. Briefly: Antiproliferative effects in LAPC4 cells (CellTiter Glo). Conditions: LAPC4 cells (AKT1 E17K allele), read-out: LAPC4 proliferation IC50. The method in brief: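 LAPC4 cells were cultured in IMDM with 12% FBS and 1% P/S, seeded at 1,000 cells/well and exposed to compound dilutions in DMSO. After 72 h, intracellular ATP was measured by CellTiter Glo luminescence, and IC50 values came from a log(inhibitor) vs. response Hill fit.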
A general note: Cellular ATP, detected with luciferase, serves as a proxy for viable cell number.

T2 sequence (P31751 whole entry): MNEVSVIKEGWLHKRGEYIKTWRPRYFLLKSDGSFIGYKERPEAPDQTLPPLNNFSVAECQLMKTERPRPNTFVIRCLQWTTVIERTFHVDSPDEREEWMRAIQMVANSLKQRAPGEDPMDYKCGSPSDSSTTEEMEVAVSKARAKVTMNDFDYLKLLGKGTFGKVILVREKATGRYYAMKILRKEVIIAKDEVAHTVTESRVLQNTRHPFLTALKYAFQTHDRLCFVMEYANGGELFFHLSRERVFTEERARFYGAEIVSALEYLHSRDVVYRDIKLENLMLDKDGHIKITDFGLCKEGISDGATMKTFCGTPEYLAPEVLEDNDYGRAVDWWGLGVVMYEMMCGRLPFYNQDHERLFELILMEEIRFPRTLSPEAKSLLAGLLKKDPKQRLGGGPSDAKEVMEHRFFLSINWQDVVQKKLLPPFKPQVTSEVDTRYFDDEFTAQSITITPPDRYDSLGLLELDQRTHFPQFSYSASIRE
T1 sequence (P31749 whole entry E17K): as the sequence (P31749 whole entry) above, with E17K counted along it

Consider `C=CC(=O)N1CCC(N[C@H]2CCc3cc(-n4c(-c5cccnc5N)nc5ccc(N6CC7CCC(C6)O7)nc54)ccc32)CC1` [Example 258, 1-(4-{[(1S)-5-[2-(2-aminopyridin-3-yl)-5-{8-oxa-3-azabicyclo[3.2.1]octan-3-yl}imidazo[4,5-b]pyridin-3-yl]-2,3-dihydro-1H-inden-1-yl]amino}piperidin-1-yl)prop-2-en-1-one], for which the IC50 at AKT1 E17K was found to be 94.7 nM; on AKT2, 915 nM; at AKT1 WT, 1320 nM; in assay [1] (Homo sapiens, LAPC4, 72 h) it was 526 nM.
As to `C=CC(=O)N1CCC(N[C@H]2CCc3cc(-n4c(-c5cccnc5N)nc5ccc(-n6cccn6)nc54)ccc32)C[C@H]1C` (single isomer, unassigned) [Example 62, 1-((2R,4*)-4-(((S)-5-(2-(2-aminopyridin-3-yl)-5-(1H-pyrazol-1-yl)-3H-imidazo[4,5-b]pyridin-3-yl)-2,3-dihydro-1H-inden-1-yl)amino)-2-methylpiperidin-1-yl)prop-2-en-1-one], the IC50 on AKT1 E17K stood at 8.39 nM; at AKT2, 31.7 nM; at AKT1 WT, 9.35 nM; in assay [1] (72 h), 17.1 nM.
Consider `C=CC(=O)N1CCC(N[C@H]2CCc3cc(-n4c(-c5cccnc5N)nc5ccc(-c6cnn(C(F)(F)F)c6)nc54)ccc32)CC1` [Example 225, 1-(4-{[(1S)-5-[2-(2-aminopyridin-3-yl)-5-[1-(trifluoromethyl)pyrazol-4-yl]imidazo[4,5-b]pyridin-3-yl]-2,3-dihydro-1H-inden-1-yl]amino}piperidin-1-yl)prop-2-en-1-one], for which the IC50 came out at 31.8 nM on AKT1 E17K; 239 nM on AKT2; 308 nM on AKT1 WT; 394 nM in assay [1] (Homo sapiens, LAPC4, 72 h).
For `C=CC(=O)NC1CCC(N[C@H]2CCc3cc(-n4c(-c5cccnc5N)nc5ccc(-n6cccn6)nc54)ccc32)CC1` (single isomer, unassigned) [Example 48, N-((1*,4*)-4-(((S)-5-(2-(2-aminopyridin-3-yl)-5-(1H-pyrazol-1-yl)-3H-imidazo[4,5-b]pyridin-3-yl)-2,3-dihydro-1H-inden-1-yl)amino)cyclohexyl)acrylamide], the IC50 on AKT1 E17K came to 799 nM; on AKT2 it was 1280 nM; on AKT1 WT, 111 nM; in assay [1] (72 h) it was 1400 nM.
For the compound `C=CC(=O)N1CCC(N[C@H]2CCc3cc(-n4c(-c5cccnc5N)nc5ccc(-n6cccn6)nc54)ccc32)C[C@@H]1C` (single isomer, unassigned) [Example 66, 1-((2S,4*)-4-(((S)-5-(2-(2-aminopyridin-3-yl)-5-(1H-pyrazol-1-yl)-3H-imidazo[4,5-b]pyridin-3-yl)-2,3-dihydro-1H-inden-1-yl)amino)-2-methylpiperidin-1-yl)prop-2-en-1-one], the IC50 is 29.6 nM at AKT1 E17K, 51.5 nM at AKT2, 12.1 nM on AKT1 WT and 68 nM in assay [1] (72 h).
Taken in the same sequence, the figures for `C=CC(=O)N1CCCC(c2cn([C@H]3CCc4cc(-n5c(-c6cccnc6N)nc6ccc(-n7cccn7)nc65)ccc43)nn2)C1` (single isomer, unassigned) [Example 168, 1-((*)-3-(1-((S)-5-(2-(2-aminopyridin-3-yl)-5-(1H-pyrazol-1-yl)-3H-imidazo[4,5-b]pyridin-3-yl)-2,3-dihydro-1H-inden-1-yl)-1H-1,2,3-triazol-4-yl)piperidin-1-yl)prop-2-en-1-one] were 32.6 nM, 369 nM, 571 nM and 858 nM.
In the same order, the values of `C=CC(=O)N1CCN(NC2CCc3cc(-n4c(-c5cccnc5N)nc5ccc(-n6ccc(F)n6)nc54)ccc32)CC1` (single isomer, unassigned) [Example 201, 1-(4-{[(1*)-5-[2-(2-aminopyridin-3-yl)-5-(3-fluoropyrazol-1-yl)imidazo[4,5-b]pyridin-3-yl]-2,3-dihydro-1H-inden-1-yl]amino}piperazin-1-yl)prop-2-en-1-one] are 10.2 nM, 41 nM, 96.8 nM and 127 nM.
Regarding `C=CC(=O)N1CCC(NC2CCc3cc(-n4c(-c5cccnc5N)nc5ccc(C6CC6(F)F)nc54)ccc32)CC1` (single isomer, unassigned) [Example 244, 1-(4-(((*)-5-(2-(2-aminopyridin-3-yl)-5-((*)-2,2-difluorocyclopropyl)-3H-imidazo[4,5-b]pyridin-3-yl)-2,3-dihydro-1H-inden-1-yl)amino)piperidin-1-yl)prop-2-en-1-one], the IC50 at AKT1 E17K came to 20.1 nM; at AKT2, 199 nM; at AKT1 WT, 984 nM; in assay [1] (Homo sapiens, LAPC4, 72 h), 371 nM.
In the same order, the values of `CC(C)=CC(=O)N1CCC(N[C@H]2CCc3cc(-n4c(-c5cccnc5N)nc5ccc(-n6cccn6)nc54)ccc32)CC1` [Example 185, 1-(4-{[(1S)-5-[2-(2-aminopyridin-3-yl)-5-(pyrazol-1-yl)imidazo[4,5-b]pyridin-3-yl]-2,3-dihydro-1H-inden-1-yl]amino}piperidin-1-yl)-3-methylbut-2-en-1-one] are 53.2 nM, 912 nM, 2170 nM and 4130 nM.
With `C=CC(=O)N1CCC(N[C@H]2CCc3cc(-n4c(-c5cccnc5N)nc5ccc(N6CC[C@H](F)C6)nc54)ccc32)CC1` [Example 226, 1-(4-{[(1S)-5-[2-(2-aminopyridin-3-yl)-5-[(3S)-3-fluoropyrrolidin-1-yl]imidazo[4,5-b]pyridin-3-yl]-2,3-dihydro-1H-inden-1-yl]amino}piperidin-1-yl)prop-2-en-1-one], the IC50 came to 22.5 nM on AKT1 E17K; 68.9 nM on AKT2; 105 nM on AKT1 WT; 276 nM in assay [1] (Homo sapiens, LAPC4, 72 h).
Taken in the same sequence, the figures for `C=CC(=O)N1CCC(N[C@@H]2CCc3cc(-n4c(-c5cccnc5N)nc5ccc(-n6cccn6)nc54)ccc32)CC1` [Example 149, 1-(4-{[(1R)-5-[2-(2-aminopyridin-3-yl)-5-(pyrazol-1-yl)imidazo[4,5-b]pyridin-3-yl]-2,3-dihydro-1H-inden-1-yl]amino}piperidin-1-yl)prop-2-en-1-one] were 60.8 nM, 189 nM, 23.5 nM and 109 nM.
As for `C=CC(=O)N1CCC(N[C@@H]2c3ccc(-n4c(-c5cccnc5N)nc5ccc(-n6ccc(F)n6)nc54)cc3CC2F)C[C@H]1C` (single isomer, unassigned) [Example 277, 1-((2R,4*)-4-(((1R,2*)-5-(2-(2-aminopyridin-3-yl)-5-(3-fluoro-1H-pyrazol-1-yl)-3H-imidazo[4,5-b]pyridin-3-yl)-2-fluoro-2,3-dihydro-1H-inden-1-yl)amino)-2-methylpiperidin-1-yl)prop-2-en-1-one], the IC50 at AKT1 E17K came to 23.3 nM; at AKT2 it was 54.6 nM; at AKT1 WT it was 821 nM; in assay [1] (72 h), 138 nM.
On to `C=CC(=O)NC1CC(N[C@H]2CCc3cc(-n4c(-c5cccnc5N)nc5ccc(-n6cccn6)nc54)ccc32)C1` (single isomer, unassigned) [Example 89, N-((1*,3*)-3-(((S)-5-(2-(2-aminopyridin-3-yl)-5-(1H-pyrazol-1-yl)-3H-imidazo[4,5-b]pyridin-3-yl)-2,3-dihydro-1H-inden-1-yl)amino)cyclobutyl)acrylamide], for which the IC50 turned out to be 22.9 nM at AKT1 E17K, 75.2 nM on AKT2, 8.15 nM at AKT1 WT and 74.9 nM in assay [1] (72 h).
For the compound `C=CC(=O)N1CCC(CN[C@H]2CCc3cc(-n4c(-c5cccnc5N)nc5ccc(-n6cccn6)nc54)ccc32)CC1` [Example 68, 1-[4-({[(1S)-5-[2-(2-aminopyridin-3-yl)-5-(pyrazol-1-yl)imidazo[4,5-b]pyridin-3-yl]-2,3-dihydro-1H-inden-1-yl]amino}methyl)piperidin-1-yl]prop-2-en-1-one], the IC50 on AKT1 E17K is 21.9 nM; at AKT2, 74.2 nM; at AKT1 WT it was 9.84 nM; in assay [1] (Homo sapiens, LAPC4, 72 h) it was 75.6 nM.
Take `C=CC(=O)Nc1cccc(C)c1C(=O)N[C@H]1CCc2cc(-n3c(-c4cccnc4N)nc4ccc(-n5cccn5)nc43)ccc21` [Example 15, (S)-2-acrylamido-N-(5-(2-(2-aminopyridin-3-yl)-5-(1H-pyrazol-1-yl)-3H-imidazo[4,5-b]pyridin-3-yl)-2,3-dihydro-1H-inden-1-yl)-6-methylbenzamide]: the IC50 turned out to be 78.7 nM at AKT1 E17K; 377 nM at AKT2; 34.3 nM on AKT1 WT; 366 nM in assay [1] (Homo sapiens, LAPC4, 72 h).
For `C=CC(=O)N1CCC(N[C@@H]2c3ccc(-n4c(-c5ccccc5F)nc5ccc(-n6cccn6)nc54)cc3CC2F)CC1` (single isomer, unassigned) [Example 300, 1-(4-(((1R,2*)-2-fluoro-5-(2-(2-fluorophenyl)-5-(1H-pyrazol-1-yl)-3H-imidazo[4,5-b]pyridin-3-yl)-2,3-dihydro-1H-inden-1-yl)amino)piperidin-1-yl)prop-2-en-1-one], the IC50 worked out at 9.07 nM on AKT1 E17K, 34.9 nM on AKT2, 2330 nM at AKT1 WT and 389 nM in assay [1] (72 h).
